Reference: patent US20240365782A1, “USE OF 2-AMINO-3-METHYLHEXANOIC ACID IN PROMOTING PLANT GROWTH AND INCREASING YIELD” (NANJING AGRICULTURAL UNIVERSITY, priority 2021, published 2024)

Key:
rice seedlings = assay: Soaking seeds: effect on growth of rice seedlings; type: in vivo; conditions: for Chlorophyll content: rice leaves; for Chlorophyll content improved compared with the blank control / Plant height improved compared with the blank control / Root fresh weight / Root fresh weight improved compared with the blank control / Root length / Root length improved compared with the blank control / Plant height: rice seedlings; for Plant height: 3 leaves and 1 heart stage
Description: Rice seeds (variety “Dengliangyou 2108”) were washed clean with distilled water, disinfected with 75% alcohol for 3 minutes, washed with the distilled water for 3 times, and then disinfected with NaClO (5%) for about 10 minutes, taken out, and washed with the distilled water. Residual water on the surfaces of the seeds was absorbed with clean filter paper until the surfaces were dry and clean. 50 g of the healthy, full and uniform seeds were picked and placed in 100-mL conical flasks. 50 mL of a 2-amino-3-methylhexanoic acid aqueous solution with the concentrations of 0 nM, 10 nM, 100 nM and 1,000 nM was added into each bottle respectively, the seeds were soaked for 5 days at room temperature and taken out, 100 rice seeds to be tested with a consistent germination state were respectively selected, uniformly sowed in a rice seedling tray, and covered with sterile nutrient soil, the seedling tray was placed in a culture room at 28° C., and when 3 leaves and 1 heart of the rice seedlings were grown, the plant height, the root length, the root fresh weight and the overground part fresh weight of the rice seedlings were respectively measured.
(§1) 0.1 g of the rice leaves were accurately cut off for measuring the chlorophyll content. The rice leaves were extracted with 10 mL of an acetone ethanol extracting solution (80% acetone: 95% ethanol at a volume ratio of 1:1) for 24 hours in a dark place. A chlorophyll extracting stock solution was diluted by 3 times with the extracting solution as a reference solution, the light density values at wave lengths of 645 nm and 663 nm were measured with a spectrophotometer, and the chlorophyll content was calculated with a modifier formula of an Amnon method.
In the formula, Ch1a, Ch1b and Ch1t are the concentrations (mg/g·FW) of chlorophyll a, chlorophyll b and total chlorophyll, respectively; n is the dilution ratio; v is the volume of the extracting solution (L); m is the mass (g) of the leaves; and A663 and A645 are absorbance values of 663 nm and 645 nm, respectively.

Bacillus subtilis = conditions: cited from earlier work
Achromobacter butyri = conditions: cited from earlier work
Brevibacterium helvolum = conditions: cited from earlier work
tomato seedlings = assay: Stem and leaf treatment: growth of tomato seedlings; type: in vivo
Description: (§2) In 2021, an experiment was conducted in a Changshanxiang Mingyang family farm (standard greenhouse nursery base) in Zhangjiagang city, Jiangsu province. A strawberry variety to be tested was Hongyan, a tomato variety was Qianxi, and a hot pepper variety was Sujiao No. 5. 2-amino-3-methylhexanoic acid was taken, dissolved with distilled water, and diluted with the distilled water to obtain a solution of 100 nM (14.5 μg/L), a blank control was additionally set, and 0.02% Tween 20 as a surfactant and 14-hydroxylated brassinosteroid (Sichuan New Sun company) with the concentration of 37.5 μg/L as a control agent were added at the same time. Each treatment was repeated three times, the plot area was 20 m^2, and the liquid injection volume per plot was 1 L. The treatment method was foliage spray, an investigation was conducted on day 9 after the application, and the results were shown in Tables 3-5 and FIG. 3-FIG. 5.

Pseudomonas aeruginosa = conditions: cited from earlier work
P. fluorescens = conditions: cited from earlier work
hot pepper seedlings = assay: Stem and leaf treatment: growth of hot pepper seedlings; type: in vivo
Description: as §2

A. ureafaciens = conditions: cited from earlier work
strawberry plants = assay: Stem and leaf treatment: growth and yield of mature strawberry plants (field application); type: in vivo; conditions: for Leaf number / Leaf width / Plant height: mature strawberry plants; for Mass of fruits per plant / Number of fruits per plant: strawberries; for Chlorophyll content: strawberry leaves
Description: as §1
On Feb. 27, 2021, an experiment was conducted in a greenhouse of a farm of Baitu town, Jurong city, Jiangsu province, and the strawberry variety to be tested was Hongyan. The 2-amino-3-methylhexanoic acid was taken, dissolved with distilled water, and gradiently diluted with the distilled water to obtain solutions of 1,000 nM and 100 nM, a blank control was additionally set, and 0.02% Tween 20 as a surfactant was added at the same time. Each treatment was repeated three times, the plot area was 100 m^2, and the liquid injection volume per plot was 4.5 L. Three times of field application were conducted on February 27, March 3, and Mar. 8, 2021, respectively. The treatment method was foliage spray. The plant height, the leaf number, the leaf width, the number of fruits per plant, and the mass of fruits per plant were investigated on March 8. 0.2 g of strawberry leaves were cut off at the same time for measuring the chlorophyll content.

E. coli B = conditions: cited from earlier work
Aerobacter aerogenes = conditions: cited from earlier work
[1] = foliage spray, day 9, 2-amino-3-methylhexanoic acid 14.5 μg/L (100 nM), 14-hydroxylated brassinosteroid 37.5 μg/L
[2] = mature strawberry plants, 1,000 nM

CCCC(C)C(N)C(=O)O (centres unmarked) [2-amino-3-methylhexanoic acid]
Chlorophyll content (rice seedlings; seed soaking 10 nM): 3.60 ± 0.055b mg/g · FW | Chlorophyll content (rice seedlings; seed soaking 100 nM): 3.82 ± 0.079a mg/g · FW | Chlorophyll content (rice seedlings; seed soaking 1,000 nM): 3.63 ± 0.013b mg/g · FW | Chlorophyll content improved compared with the blank control (rice seedlings; seed soaking 10 nM): 31% | Plant height improved compared with the blank control (rice seedlings; seed soaking 10 nM): 9% | Root fresh weight (rice seedlings; seed soaking 10 nM): 0.039 ± 0.002c g | Root fresh weight improved compared with the blank control (rice seedlings; seed soaking 10 nM): 18% | Root length (rice seedlings; seed soaking 10 nM): 8.34 ± 0.53b cm | Root length improved compared with the blank control (rice seedlings; seed soaking 10 nM): 14% | Plant height (rice seedlings; seed soaking 10 nM): 25.24 ± 0.82b cm | Chlorophyll content improved compared with the blank control (rice seedlings; seed soaking 100 nM): 39% | Plant height improved compared with the blank control (rice seedlings; seed soaking 100 nM): 29% | Root fresh weight (rice seedlings; seed soaking 100 nM): 0.069 ± 0.007a g | Root fresh weight improved compared with the blank control (rice seedlings; seed soaking 100 nM): 109% | Root length (rice seedlings; seed soaking 100 nM): 9.30 ± 0.26a cm | Root length improved compared with the blank control (rice seedlings; seed soaking 100 nM): 27% | Plant height (rice seedlings; seed soaking 100 nM): 29.88 ± 0.16a cm | Chlorophyll content improved compared with the blank control (rice seedlings; seed soaking 1,000 nM): 32% | Plant height improved compared with the blank control (rice seedlings; seed soaking 1,000 nM): 13% | Root fresh weight (rice seedlings; seed soaking 1,000 nM): 0.052 ± 0.003b g | Root fresh weight improved compared with the blank control (rice seedlings; seed soaking 1,000 nM): 58% | Root length (rice seedlings; seed soaking 1,000 nM): 8.30 ± 0.17b cm | Root length improved compared with the blank control (rice seedlings; seed soaking 1,000 nM): 14% | Plant height (rice seedlings; seed soaking 1,000 nM): 26.20 ± 0.32b cm | Inhibitory effect (Bacillus subtilis): remarkable inhibitory effect | Inhibitory effect (Achromobacter butyri): slight inhibitory effect | Inhibitory effect (Brevibacterium helvolum): no inhibitory effect | Plant height improved compared with 14-hydroxylated brassinosteroid 37.5 μg/L (tomato seedlings; 14.5 μg/L): 76% | Plant height improved compared with the blank control (tomato seedlings; 14.5 μg/L): 84% | Root fresh weight improved compared with 14-hydroxylated brassinosteroid 37.5 μg/L (tomato seedlings; 14.5 μg/L): 16% | Root fresh weight improved compared with the blank control (tomato seedlings; 14.5 μg/L): 232% | Root length improved compared with 14-hydroxylated brassinosteroid 37.5 μg/L (tomato seedlings; 14.5 μg/L): 18% | Root length improved compared with the blank control (tomato seedlings; 14.5 μg/L): 38% | Plant height (tomato seedlings; [1]): 20.80 ± 0.21a cm | Root fresh weight (tomato seedlings; [1]): 4.05 ± 0.07a g | Root length (tomato seedlings; [1]): 5.39 ± 0.43a cm | Inhibitory effect (Pseudomonas aeruginosa): slight inhibitory effect | Inhibitory effect (P. fluorescens): no inhibitory effect | Plant height improved compared with 14-hydroxylated brassinosteroid 37.5 μg/L (hot pepper seedlings; 14.5 μg/L): 37% | Plant height improved compared with the blank control (hot pepper seedlings; 14.5 μg/L): 60% | Root fresh weight improved compared with 14-hydroxylated brassinosteroid 37.5 μg/L (hot pepper seedlings; 14.5 μg/L): 35% | Root fresh weight improved compared with the blank control (hot pepper seedlings; 14.5 μg/L): 49% | Root length improved compared with 14-hydroxylated brassinosteroid 37.5 μg/L (hot pepper seedlings; 14.5 μg/L): 7% | Root length improved compared with the blank control (hot pepper seedlings; 14.5 μg/L): 46% | Plant height (hot pepper seedlings; [1]): 9.32 ± 0.32a cm | Root fresh weight (hot pepper seedlings; [1]): 4.67 ± 0.09a g | Root length (hot pepper seedlings; [1]): 4.53 ± 0.33a cm | Inhibitory effect (A. ureafaciens): slight inhibitory effect | Chlorophyll content improved compared with the blank control (strawberry plants; [2]): 21% | Leaf number improved compared with the blank control (strawberry plants; [2]): 79% | Leaf width improved compared with the blank control (strawberry plants; [2]): 32% | Plant height improved compared with the blank control (strawberry plants; [2]): 49% | Leaf number (strawberry plants; foliage spray 100 nM): 22.44 ± 4.32b leaf | Leaf width (strawberry plants; foliage spray 100 nM): 5.33 ± 0.48b cm | Plant height (strawberry plants; foliage spray 100 nM): 26.50 ± 3.60b cm | Leaf number (strawberry plants; foliage spray 1,000 nM): 26.00 ± 4.76a leaf | Leaf width (strawberry plants; foliage spray 1,000 nM): 6.59 ± 1.07a cm | Plant height (strawberry plants; foliage spray 1,000 nM): 36.60 ± 3.28a cm | Mass of fruits per plant (strawberry plants; foliage spray 100 nM): 29.06 ± 0.76b g | Number of fruits per plant (strawberry plants; foliage spray 100 nM): 8.32 ± 0.47b fruit | Mass of fruits per plant (strawberry plants; foliage spray 1,000 nM): 34.47 ± 0.58a g | Number of fruits per plant (strawberry plants; foliage spray 1,000 nM): 9.72 ± 0.43a fruit | Chlorophyll content (strawberry plants; foliage spray 100 nM): 3.50 ± 0.30ab mg/g · FW | Chlorophyll content (strawberry plants; foliage spray 1,000 nM): 3.74 ± 0.65a mg/g · FW | Mass of fruits per plant improved compared to the blank control (strawberry plants; strawberry plants, 1,000 nM): 44% | Number of fruits per plant improved compared to the blank control (strawberry plants; strawberry plants, 1,000 nM): 39% | Inhibitory effect (E. coli B): slight inhibitory effect | Inhibitory effect (Aerobacter aerogenes): no inhibitory effect
